The values that follow are results of earlier work, collected in US8148152B2, “Method for the preparation of embryoid bodies (EBs) and uses thereof” (Axiogenesis AG, priority 2003, dated 2012).

Data set [1] relates to ES cell-derived cardiomyocytes. To be noted: test compounds with known cardiotoxic potential; added on day 14, effect on fluorescent areas during 72 hours; data only in FIG. 6.
Data set [2] relates to EBs from mouse embryonic stem cells (clone D3, pαMHC-GFP). The conditions noted are these: test compounds with known embryotoxic potential from ECVAM list; 10^-8 to 10^-5 M; fluorescence on day 14 as percent of control (0.1% DMSO); data only in FIG. 5.

SMILES strings stand for the structures.

As for `C[C@@H]1C[C@H]2[C@@H]3CCC4=CC(=O)C=C[C@]4(C)[C@@]3(F)[C@@H](O)C[C@]2(C)[C@@]1(O)C(=O)CO` [dexamethasone], in data set [1], the “cardiotoxic potential (classification of test compound)” value is given as “non cardiotoxic”.
With `COC(=O)c1ccccc1C(=O)OC` [dimethylphtalate], in data set [2], the “embryotoxic potential (classification of test compound)” value (shortened to “embryotoxic potential”) was “non-embryotoxic”.
As to `COc1cccc2c1C(=O)c1c(O)c3c(c(O)c1C2=O)C[C@@](O)(C(=O)CO)C[C@@H]3O[C@H]1C[C@H](N)[C@H](O)[C@H](C)O1` [doxorubicine], in data set [1], the “cardiotoxic potential (classification of test compound)” value was “cardiotoxic”.
Turning to `CN(Cc1cnc2nc(N)nc(N)c2n1)c1ccc(C(=O)N[C@@H](CCC(=O)O)C(=O)O)cc1` [methotrexate], the “embryotoxic potential” value in data set [2] is listed as “strong embryotoxic”.
On to `CCCC(CCC)C(=O)O` [valproic acid], for which the “embryotoxic potential” value in data set [2] is recorded as “weak embryotoxic”.
